Reference: patent US20230183224A1, “BEZOXAZINE DERIVATIVES USEFUL AS MONOACYLGLYCEROL LIPASE INHIBITORS” (Hoffmann-La Roche Inc., priority 2017, published 2023)
Values belong to the compound of their own block, whether it stands above or below them.

Biological target: T1, MAGL (recombinant wild-type) (Homo sapiens, UniProt Q99685)
T1 sequence (Q99685 1-303): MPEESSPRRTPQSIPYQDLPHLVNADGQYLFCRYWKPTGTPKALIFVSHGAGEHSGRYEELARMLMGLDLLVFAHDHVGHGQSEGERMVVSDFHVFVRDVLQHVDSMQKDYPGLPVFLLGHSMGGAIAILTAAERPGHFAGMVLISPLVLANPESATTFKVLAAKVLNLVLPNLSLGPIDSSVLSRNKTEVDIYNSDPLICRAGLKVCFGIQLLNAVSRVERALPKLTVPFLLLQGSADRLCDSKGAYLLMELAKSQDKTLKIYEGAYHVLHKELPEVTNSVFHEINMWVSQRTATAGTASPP
Experiment: MAGL inhibitory activity, hydrolysis of 4-nitrophenylacetate to 4-nitrophenol (absorbance at 405 nm)
Assay type: biochemical
Settings: 1 nM MAGL, 300 μM 4-nitrophenylacetate, 15 min preincubation at RT, slope of absorbance at 405 nm between 5 and 80 min
Experimental: Compounds were profiled for MAGL inhibitory activity by measuring the enzymatic activity of MAGL by following the hydrolysis of 4-nitorphenylacetate resulting in 4-nitrophenol, which absorbs at 405-412 nm (G. G. Muccioli, G. Labar, D. M. Lambert, Chem. Bio. Chem. 2008, 9, 2704-2710).
The assay was carried out in 384 well assay plates (black with clear bottom, non-binding surface treated, Corning Ref. 3655) in a total volume of 40 μL. Compound dilutions were made in 100% DMSO (VWR Chemicals 23500.297) in a polypropylene plate in 3-fold dilution steps to give a final concentration range in the assay from 25 μM to 1.7 nM. 1 μL compound dilutions (100% DMSO) were added to 19 μL MAGL (recombinant wild-type) in assay buffer (50 mM TRIS (GIBCO, 15567-027), 1 mM EDTA (Fluka, 03690-100 ml)). The plate was shaked for 1 min at 2000 rpm (Variomag Teleshake) and then incubated for 15 min at RT. To start the reaction, 20 μL 4-Nitrophenlyacetate (Sigma N-8130) in assay buffer with 6% EtOH was added. The final concentrations in the assay were 1 nM MAGL and 300 μM 4-Nitrophenylacetate. After shaking (1 m, 2000 rpm) and 5 min incubation at RT, the absorbance at 405 nm was measured for a first time (Molecular Devices, SpectraMax Paradigm). A second measurement was then done after incubation for 80 min at RT. From the two measurements, the slope was calculated by subtracting the first from the second measurement.

SMILES: O=C1COc2ccc(C(=O)N3CCC(N(C(=O)Cc4ccccc4)C4CC4)CC3)cc2N1 [Example 33, N-cyclopropyl-N-[1-(3-oxo-4H-1,4-benzoxazine-6-carbonyl)piperidin-4-yl]-2-phenylacetamide]
IC50: 310 nM

SMILES: CC1CN(C(=O)c2ccc3c(c2)NC(=O)CO3)CCN1Cc1ccc(C(F)(F)F)cc1 (centres unmarked) [Example 34, 6-[3-methyl-4-[[4-(trifluoromethyl)phenyl]methyl]piperazine-1-carbonyl]-4H-1,4-benzoxazin-3-one]
IC50: 449 nM

SMILES: O=C1COc2ccc(C(=O)N3CCN(CCc4cccc(Cl)c4)C(c4cc[nH]n4)C3)cc2N1 (centres unmarked) [Example 35, 6-[4-[2-(3-chlorophenyl)ethyl]-3-(1H-pyrazol-3-yl)piperazine-1-carbonyl]-4H-1,4-benzoxazin-3-one]
IC50: 1830 nM

Other lines, results leading:

IC50: 112 nM
SMILES: O=C1COc2ccc(C(=O)N3CCN(Cc4ccc(C(F)(F)F)cc4)C(C(F)(F)F)C3)cc2N1 (centres unmarked) [Example 36, 6-[3-(trifluoromethyl)-4-[[4-(trifluoromethyl)phenyl]methyl]piperazine-1-carbonyl]-4H-1,4-benzoxazin-3-one]

IC50: 2250 nM
SMILES: O=C1COc2ccc(C(=O)N3CCN(Cc4ccc(C(F)(F)F)cc4)C(c4cc[nH]n4)C3)cc2N1 (centres unmarked) [Example 37, 6-[3-(1H-pyrazol-3-yl)-4-[[4-(trifluoromethyl)phenyl]methyl]piperazine-1-carbonyl]-4H-1,4-benzoxazin-3-one]
